According to PubChem BioAssay (NCI):
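Assay format: 96-well plates, 48-hour exposure. GI50 = concentration required for 50% inhibition of growth. Definition used: TGI = concentration required for complete inhibition of growth.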

Legend:
Assay in all cases: NCI anticancer screen, dose series, 48 h
786-0 renal = tested on: 786-0 renal
A498 renal = tested on: A498 renal
A549 NSCLC = tested on: A549 NSCLC
ACHN renal = tested on: ACHN renal
BT-549 breast = tested on: BT-549 breast
CAKI-1 renal = tested on: CAKI-1 renal
CCRF-CEM leukemia = tested on: CCRF-CEM leukemia
COLO 205 colon = tested on: COLO 205 colon
DU-145 prostate = tested on: DU-145 prostate
EKVX NSCLC = tested on: EKVX NSCLC
HCC-2998 colon = tested on: HCC-2998 colon
HCT-116 colon = tested on: HCT-116 colon
HCT-15 colon = tested on: HCT-15 colon
HL-60(TB) leukemia = tested on: HL-60(TB) leukemia
HOP-62 NSCLC = tested on: HOP-62 NSCLC
HOP-92 NSCLC = tested on: HOP-92 NSCLC
HS 578T breast = tested on: HS 578T breast
HT29 colon = tested on: HT29 colon
IGROV1 ovarian = tested on: IGROV1 ovarian
K-562 leukemia = tested on: K-562 leukemia
KM12 colon = tested on: KM12 colon
LOX IMVI melanoma = tested on: LOX IMVI melanoma
M14 melanoma = tested on: M14 melanoma
MALME-3M melanoma = tested on: MALME-3M melanoma
MCF7 breast = tested on: MCF7 breast
MDA-MB-231 breast = tested on: MDA-MB-231 breast
MDA-MB-435 = tested on: MDA-MB-435
MDA-N = tested on: MDA-N
MOLT-4 leukemia = tested on: MOLT-4 leukemia
NCI-H226 lung = tested on: NCI-H226 lung
NCI-H23 lung = tested on: NCI-H23 lung
NCI-H460 lung = tested on: NCI-H460 lung
NCI-H522 lung = tested on: NCI-H522 lung
NCI/ADR-RES ovarian = tested on: NCI/ADR-RES ovarian
OVCAR-3 ovarian = tested on: OVCAR-3 ovarian
OVCAR-4 ovarian = tested on: OVCAR-4 ovarian
OVCAR-5 ovarian = tested on: OVCAR-5 ovarian
OVCAR-8 ovarian = tested on: OVCAR-8 ovarian
PC-3 prostate = tested on: PC-3 prostate
RPMI-8226 leukemia = tested on: RPMI-8226 leukemia
RXF 393 renal = tested on: RXF 393 renal
SF-268 CNS = tested on: SF-268 CNS
SF-295 CNS = tested on: SF-295 CNS
SK-MEL-2 melanoma = tested on: SK-MEL-2 melanoma
SK-MEL-28 melanoma = tested on: SK-MEL-28 melanoma
SK-MEL-5 melanoma = tested on: SK-MEL-5 melanoma
SK-OV-3 ovarian = tested on: SK-OV-3 ovarian
SN12C renal = tested on: SN12C renal
SNB-19 CNS = tested on: SNB-19 CNS
SNB-75 CNS = tested on: SNB-75 CNS
SR leukemia = tested on: SR leukemia
SW-620 colon = tested on: SW-620 colon
T-47D breast = tested on: T-47D breast
TK-10 renal = tested on: TK-10 renal
U251 CNS = tested on: U251 CNS
UACC-257 melanoma = tested on: UACC-257 melanoma
UACC-62 melanoma = tested on: UACC-62 melanoma
UO-31 renal = tested on: UO-31 renal
SF-539 CNS = tested on: SF-539 CNS

CCN(CC)C(=S)SS(=O)(=O)c1ccc(N)cc1
TGI (786-0 renal): > 100 µM | TGI (A498 renal): > 94.2 µM | TGI (A549 NSCLC): > 100 µM | TGI (ACHN renal): > 100 µM | GI50 (BT-549 breast): > 100 µM | TGI (BT-549 breast): > 100 µM | TGI (CAKI-1 renal): > 90.2 µM | GI50 (CCRF-CEM leukemia): > 100 µM | TGI (CCRF-CEM leukemia): > 100 µM | GI50 (COLO 205 colon): > 100 µM | TGI (COLO 205 colon): > 100 µM | GI50 (DU-145 prostate): > 100 µM | TGI (DU-145 prostate): > 100 µM | TGI (EKVX NSCLC): > 100 µM | TGI (HCC-2998 colon): > 100 µM | GI50 (HCT-116 colon): > 100 µM | TGI (HCT-116 colon): > 100 µM | GI50 (HCT-15 colon): > 100 µM | TGI (HCT-15 colon): > 100 µM | GI50 (HL-60(TB) leukemia): > 100 µM | TGI (HL-60(TB) leukemia): > 100 µM | TGI (HOP-62 NSCLC): > 100 µM | TGI (HOP-92 NSCLC): > 100 µM | TGI (HS 578T breast): > 100 µM | TGI (HT29 colon): > 100 µM | TGI (IGROV1 ovarian): > 100 µM | TGI (K-562 leukemia): > 100 µM | TGI (KM12 colon): > 100 µM | GI50 (LOX IMVI melanoma): > 100 µM | TGI (LOX IMVI melanoma): > 100 µM | TGI (M14 melanoma): > 100 µM | GI50 (MALME-3M melanoma): 46.2 µM | TGI (MALME-3M melanoma): > 100 µM | TGI (MCF7 breast): > 100 µM | GI50 (MDA-MB-231 breast): > 100 µM | TGI (MDA-MB-231 breast): > 100 µM | GI50 (MDA-MB-435): > 100 µM | TGI (MDA-MB-435): > 100 µM | TGI (MDA-N): > 100 µM | TGI (MOLT-4 leukemia): > 100 µM | GI50 (NCI-H226 lung): 99.2 µM | TGI (NCI-H226 lung): > 100 µM | TGI (NCI-H23 lung): > 100 µM | TGI (NCI-H460 lung): > 100 µM | TGI (NCI-H522 lung): > 26.6 µM | GI50 (NCI/ADR-RES ovarian): > 100 µM | TGI (NCI/ADR-RES ovarian): > 100 µM | GI50 (OVCAR-3 ovarian): > 100 µM | TGI (OVCAR-3 ovarian): > 100 µM | GI50 (OVCAR-4 ovarian): > 100 µM | TGI (OVCAR-4 ovarian): > 100 µM | TGI (OVCAR-5 ovarian): > 100 µM | GI50 (OVCAR-8 ovarian): > 100 µM | TGI (OVCAR-8 ovarian): > 100 µM | GI50 (PC-3 prostate): 90.8 µM | TGI (PC-3 prostate): > 100 µM | TGI (RPMI-8226 leukemia): > 100 µM | TGI (RXF 393 renal): > 100 µM | GI50 (SF-268 CNS): > 100 µM | TGI (SF-268 CNS): > 100 µM | GI50 (SF-295 CNS): > 100 µM | TGI (SF-295 CNS): > 100 µM | TGI (SK-MEL-2 melanoma): > 100 µM | GI50 (SK-MEL-28 melanoma): > 100 µM | TGI (SK-MEL-28 melanoma): > 100 µM | TGI (SK-MEL-5 melanoma): > 100 µM | TGI (SK-OV-3 ovarian): > 100 µM | GI50 (SN12C renal): > 100 µM | TGI (SN12C renal): > 100 µM | TGI (SNB-19 CNS): > 100 µM | GI50 (SNB-75 CNS): 48.5 µM | TGI (SNB-75 CNS): > 100 µM | TGI (SR leukemia): > 100 µM | GI50 (SW-620 colon): > 100 µM | TGI (SW-620 colon): > 100 µM | TGI (T-47D breast): > 100 µM | GI50 (TK-10 renal): > 100 µM | TGI (TK-10 renal): > 100 µM | GI50 (U251 CNS): > 100 µM | TGI (U251 CNS): > 100 µM | GI50 (UACC-257 melanoma): > 100 µM | TGI (UACC-257 melanoma): > 100 µM | TGI (UACC-62 melanoma): > 100 µM | TGI (UO-31 renal): > 100 µM

CCCCCCCCCCCCCCCC(=O)Nc1ccn(C2CC(OP(=O)(O)OCC3OC(n4cc(F)c(=O)[nH]c4=O)CC3OC(C)=O)C(CO)O2)c(=O)n1 (configuration not stated)
TGI (786-0 renal): > 100 µM | TGI (A498 renal): > 100 µM | TGI (A549 NSCLC): > 41.3 µM | TGI (ACHN renal): 3.54 µM | TGI (BT-549 breast): 62.2 µM | TGI (CAKI-1 renal): > 35.7 µM | TGI (CCRF-CEM leukemia): > 100 µM | TGI (COLO 205 colon): > 66.3 µM | TGI (DU-145 prostate): > 100 µM | TGI (EKVX NSCLC): > 100 µM | TGI (HCC-2998 colon): > 36.5 µM | TGI (HCT-116 colon): > 100 µM | TGI (HCT-15 colon): > 65.4 µM | TGI (HL-60(TB) leukemia): > 21.9 µM | TGI (HOP-62 NSCLC): 13.3 µM | TGI (HOP-92 NSCLC): > 100 µM | TGI (HS 578T breast): 90.9 µM | TGI (HT29 colon): 52.8 µM | TGI (IGROV1 ovarian): > 100 µM | TGI (K-562 leukemia): > 100 µM | TGI (KM12 colon): 48.1 µM | TGI (LOX IMVI melanoma): > 100 µM | TGI (M14 melanoma): > 39.7 µM | TGI (MCF7 breast): > 100 µM | TGI (MDA-MB-231 breast): > 61.5 µM | TGI (MDA-MB-435): > 94.8 µM | TGI (MDA-N): > 100 µM | TGI (MOLT-4 leukemia): 34.4 µM | TGI (NCI-H226 lung): > 100 µM | TGI (NCI-H23 lung): > 63.9 µM | TGI (NCI-H460 lung): > 100 µM | TGI (NCI-H522 lung): 37.7 µM | TGI (NCI/ADR-RES ovarian): 46.1 µM | TGI (OVCAR-3 ovarian): > 100 µM | TGI (OVCAR-4 ovarian): > 100 µM | TGI (OVCAR-5 ovarian): > 64.5 µM | TGI (OVCAR-8 ovarian): > 52.3 µM | TGI (PC-3 prostate): 25.2 µM | TGI (RPMI-8226 leukemia): 27.9 µM | TGI (RXF 393 renal): > 71 µM | TGI (SF-268 CNS): > 44.4 µM | TGI (SF-295 CNS): > 45.2 µM | TGI (SF-539 CNS): > 39.5 µM | TGI (SK-MEL-2 melanoma): > 63.4 µM | TGI (SK-MEL-28 melanoma): > 100 µM | TGI (SK-MEL-5 melanoma): > 96.5 µM | TGI (SK-OV-3 ovarian): > 51.6 µM | TGI (SN12C renal): > 49.9 µM | TGI (SNB-19 CNS): > 63.2 µM | TGI (SNB-75 CNS): > 51.6 µM | TGI (SR leukemia): 22.7 µM | TGI (SW-620 colon): > 100 µM | TGI (T-47D breast): > 100 µM | TGI (TK-10 renal): > 100 µM | TGI (U251 CNS): 71.8 µM | TGI (UACC-257 melanoma): > 100 µM | TGI (UACC-62 melanoma): > 47.2 µM | TGI (UO-31 renal): 2.75 µM
